Key:
[1] = molecular target: T1, Histamine H4 receptor (Homo sapiens, UniProt Q9H3N8); assay: Antagonist activity at human H4 receptor expressed in CHO cells co-expressing Galphai2 assessed as inhibition of imetit-induced GTPgamma[35S] binding at 1 uM after 30 mins by microbeta scintillation counting method relative to control; type: cell-based
[2] = molecular target: T1, Histamine H4 receptor; assay: Antagonist activity at human H4 receptor expressed in CHO cells co-expressing Galphai2 assessed as inhibition of imetit-induced GTPgamma[35S] binding after 30 mins by microbeta scintillation counting method; type: cell-based
[3] = molecular target: T1, Histamine H4 receptor; assay: Antagonist activity at H4 receptor in human SH-SY5Y cells assessed as inhibition of imetit-induced GTPgamma[35S] binding at 1 uM after 30 mins by microbeta scintillation counting method relative to control; type: cell-based
[4] = molecular target: T1, Histamine H4 receptor; assay: Antagonist activity at H4 receptor in human SH-SY5Y cells assessed as inhibition of imetit-induced GTPgamma[35S] binding after 30 mins by microbeta scintillation counting method; type: cell-based
[5] = molecular target: Histamine H3 receptor (Homo sapiens, UniProt Q9Y5N1); assay: Antagonist activity at H3 receptor (unknown origin)
[6] = molecular target: Voltage-gated inwardly rectifying potassium channel KCNH2 (Homo sapiens, UniProt Q12809); assay: Inhibition of human ERG
[7] = molecular target: T1, Histamine H4 receptor; assay: Antagonist activity at human H4 receptor assessed as inhibition of imetit-induced GTPgamma[35S] binding after 30 mins by microbeta scintillation counting method
[8] = molecular target: D(3) dopamine receptor (Homo sapiens, UniProt P35462); assay: Antagonist activity at D3 receptor (unknown origin)
[9] = molecular target: T1, Histamine H4 receptor; assay: Antagonist activity at H4 receptor (unknown origin)
[10] = molecular target: T1, Histamine H4 receptor; assay: Agonist activity at human H4 receptor expressed in CHO cell membranes co-expressing Galphai2 at 1 uM by GTPgamma[35S] binding assay
[11] = molecular target: T1, Histamine H4 receptor; assay: Agonist activity at human H4 receptor expressed in CHO cell membranes co-expressing Galphai2 by GTPgamma[35S] binding assay

T1 sequence (Q9H3N8 whole entry): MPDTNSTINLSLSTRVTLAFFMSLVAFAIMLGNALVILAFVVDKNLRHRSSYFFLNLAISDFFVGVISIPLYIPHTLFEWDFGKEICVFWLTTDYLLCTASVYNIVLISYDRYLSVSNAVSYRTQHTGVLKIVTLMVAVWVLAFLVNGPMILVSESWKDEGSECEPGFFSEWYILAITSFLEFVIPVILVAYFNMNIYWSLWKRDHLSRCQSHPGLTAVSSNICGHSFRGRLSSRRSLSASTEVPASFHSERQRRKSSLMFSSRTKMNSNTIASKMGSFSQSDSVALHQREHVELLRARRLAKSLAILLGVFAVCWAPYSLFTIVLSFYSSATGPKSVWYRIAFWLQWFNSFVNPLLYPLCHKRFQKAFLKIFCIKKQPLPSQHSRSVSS
Histamine H3 receptor, sequence (Q9Y5N1 whole entry): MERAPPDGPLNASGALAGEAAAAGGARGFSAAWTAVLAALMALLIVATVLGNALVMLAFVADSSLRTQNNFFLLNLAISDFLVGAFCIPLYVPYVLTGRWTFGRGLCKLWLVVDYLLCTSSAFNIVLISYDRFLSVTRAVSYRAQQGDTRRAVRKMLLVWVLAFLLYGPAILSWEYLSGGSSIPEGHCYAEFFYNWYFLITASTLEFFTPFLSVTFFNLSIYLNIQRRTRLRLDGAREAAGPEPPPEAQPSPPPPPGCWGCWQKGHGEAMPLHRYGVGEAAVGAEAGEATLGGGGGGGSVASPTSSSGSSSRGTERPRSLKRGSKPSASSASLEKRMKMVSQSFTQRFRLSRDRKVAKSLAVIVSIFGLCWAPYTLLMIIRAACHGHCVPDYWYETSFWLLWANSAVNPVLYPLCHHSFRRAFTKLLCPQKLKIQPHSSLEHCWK
Voltage-gated inwardly rectifying potassium channel KCNH2, sequence (Q12809 whole entry): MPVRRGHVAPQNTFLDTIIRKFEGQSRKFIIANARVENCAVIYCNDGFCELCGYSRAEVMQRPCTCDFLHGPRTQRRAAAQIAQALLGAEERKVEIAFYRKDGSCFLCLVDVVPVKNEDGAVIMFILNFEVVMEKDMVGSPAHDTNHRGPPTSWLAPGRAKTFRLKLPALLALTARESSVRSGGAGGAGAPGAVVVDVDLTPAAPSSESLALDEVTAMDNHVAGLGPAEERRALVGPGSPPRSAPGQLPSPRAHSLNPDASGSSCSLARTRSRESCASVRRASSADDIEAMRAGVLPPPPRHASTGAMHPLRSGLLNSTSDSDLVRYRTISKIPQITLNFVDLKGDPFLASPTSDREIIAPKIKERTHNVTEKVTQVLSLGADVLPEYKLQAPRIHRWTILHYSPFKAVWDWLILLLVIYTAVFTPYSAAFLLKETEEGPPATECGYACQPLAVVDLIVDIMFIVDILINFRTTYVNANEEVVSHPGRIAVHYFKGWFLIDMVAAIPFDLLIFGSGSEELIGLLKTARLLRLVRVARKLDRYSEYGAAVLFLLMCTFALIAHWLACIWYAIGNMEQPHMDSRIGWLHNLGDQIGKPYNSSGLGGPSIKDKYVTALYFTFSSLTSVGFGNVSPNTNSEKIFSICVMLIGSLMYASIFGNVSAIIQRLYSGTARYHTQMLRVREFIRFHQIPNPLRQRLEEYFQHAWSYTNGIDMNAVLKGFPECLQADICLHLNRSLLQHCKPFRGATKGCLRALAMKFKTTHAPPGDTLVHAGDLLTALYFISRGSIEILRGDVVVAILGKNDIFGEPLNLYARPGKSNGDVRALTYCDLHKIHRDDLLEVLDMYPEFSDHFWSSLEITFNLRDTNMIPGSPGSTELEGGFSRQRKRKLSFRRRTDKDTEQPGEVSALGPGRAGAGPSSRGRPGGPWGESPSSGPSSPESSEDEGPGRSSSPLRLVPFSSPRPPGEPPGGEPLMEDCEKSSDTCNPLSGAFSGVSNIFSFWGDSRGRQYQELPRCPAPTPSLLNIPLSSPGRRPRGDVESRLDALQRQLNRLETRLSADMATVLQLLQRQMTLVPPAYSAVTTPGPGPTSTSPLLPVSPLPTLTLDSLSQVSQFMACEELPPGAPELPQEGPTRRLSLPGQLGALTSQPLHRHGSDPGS
D(3) dopamine receptor, sequence (P35462 whole entry): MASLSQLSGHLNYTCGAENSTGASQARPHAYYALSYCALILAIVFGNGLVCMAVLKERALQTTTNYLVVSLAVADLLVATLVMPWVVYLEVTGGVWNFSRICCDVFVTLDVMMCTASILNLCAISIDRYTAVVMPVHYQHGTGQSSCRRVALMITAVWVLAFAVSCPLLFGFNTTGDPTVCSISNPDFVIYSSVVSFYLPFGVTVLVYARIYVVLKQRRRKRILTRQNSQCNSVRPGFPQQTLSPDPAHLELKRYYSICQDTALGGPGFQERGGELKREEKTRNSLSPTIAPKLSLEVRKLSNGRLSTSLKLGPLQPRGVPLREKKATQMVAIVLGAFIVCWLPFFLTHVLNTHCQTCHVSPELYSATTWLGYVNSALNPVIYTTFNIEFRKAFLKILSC

| Compound | inhibition [1] | Ki [2] | inhibition [3] | Ki [4] | Ki [5] | further results |
| --- | --- | --- | --- | --- | --- | --- |
| CC(=O)SCC(Cc1ccc2c(c1)OCO2)C(=O)NCC(=O)OCc1ccccc1 (configuration not stated) | > 20% | 214 nM | – | – | – | – |
| c1ccc(-c2ccc(CCCOCCCc3c[nH]cn3)cc2)cc1 | – | – | > 20% | 27 nM | 118 nM | – |
| Ic1ccc(C(OCCCc2c[nH]cn2)c2ccccc2)cc1 (configuration not stated) | – | – | > 20% | 3 nM | 14 nM | – |
| c1ccc(C(OCCCc2c[nH]cn2)c2ccccc2)cc1 | – | – | > 20% | 25 nM | 24 nM | Ki [6]: 500 nM |
| O=C(CCNC(=O)C(Cc1ccccc1)Cn1ccnc1)OCc1ccccc1 (configuration not stated) | – | – | > 20% | 174 nM | – | – |
| O=C(c1ccccc1)c1ccc(OCCCCCN2CCCC2)cc1 | > 20% | 13000 nM | – | – | – | – |
| COc1ccc2c(c1)c(CC(=O)NCCCn1ccnc1)c(C)n2C(=O)c1ccc(Cl)cc1 | > 20% | 4200 nM | – | – | – | – |
| O=C(CCCc1ccc(I)cc1)OCCCc1cnc[nH]1 | – | 118 nM | – | – | 41 nM | – |
| CC(=O)c1ccc(OCc2ccc(CN3CCCC(C)C3)cc2)cc1 (configuration not stated) | > 20% | 16400 nM | – | – | 22 nM | – |
| Clc1cccc(N2CCN(CCCCNc3ccc4ccccc4n3)CC2)c1Cl | > 20% | 125 nM | – | – | – | Ki [6]: 10 nM |
| O=C(NCCCCN1CCN(c2cccc(Cl)c2Cl)CC1)c1cncc(Br)c1 | – | – | – | – | – | Ki [7]: 3100 nM; Ki [8]: 2.8 nM |
| Brc1ccc(C(OCCCc2c[nH]cn2)c2ccc3ccccc3c2)cc1 (configuration not stated) | – | – | > 20% | 4 nM | 47 nM | – |
| O=C(CCCc1ccc(I)cc1)OCCCc1c[nH]cn1 | > 20% | – | – | – | – | – |
| Nc1ccc(NCCc2ccc(OCCCN3CCCCC3)cc2)nc1 | > 20% | 30000 nM | – | – | 4.8 nM | – |
| O=c1[nH]c2ccccc2n1C1CCN(CCCC(c2ccc(F)cc2)c2ccc(F)cc2)CC1 [PIMOZIDE] | – | – | – | – | – | Ki [9]: 2000 nM |
| O=C(/C=C/c1ccccc1)c1ccc(OCCCc2c[nH]cn2)cc1 | – | – | > 20% | 11 nM | 8.3 nM | – |

| Compound | inhibition [1] | Ki [2] | inhibition [3] | Ki [4] | Ki [5] | further results |
| --- | --- | --- | --- | --- | --- | --- |
| COc1cc2c(cc1OC)C(C)=C(C(=O)NCCCCN1CCN(c3ccccc3F)CC1)C2 | > 20% | 3800 nM | – | – | – | Ki [8]: 0.5 nM |
| COc1ccccc1N1CCN(CCCCNc2nccc3ccccc23)CC1 | – | – | > 20% | 51 nM | – | – |
| c1ccc(C(OCCCc2cnc[nH]2)(c2ccccc2)c2ccccc2)cc1 | – | 240 nM | – | – | > 1000 nM | – |
| c1ccc(C(OCCCc2c[nH]cn2)(c2ccccc2)c2ccccc2)cc1 | > 20% | – | – | – | – | – |
| COc1ccc2c(c1)c(CC(=O)NCCCO)c(C)n2C(=O)c1ccc(Cl)cc1 | – | – | – | – | – | Activity [10]: > 20%; EC50 [11]: 7780 nM |
| O=C(NC(c1ccc(Cl)cc1)c1ccc(Cl)cc1)OCCCc1c[nH]cn1 | – | – | > 20% | 14.5 nM | 258 nM | – |
| FC(F)(F)c1cccc(N2CCN(CCCCNc3nccc4ccccc34)CC2)c1 | – | – | > 20% | 5.4 nM | – | – |
| O=C(NCCCCN1Cc2cccc3cccc(c23)C1)c1ccc2ccccc2c1 | – | – | > 20% | 400 nM | – | – |
| Clc1cccc(N2CCN(CCCCNc3nccc4ccccc34)CC2)c1Cl | – | – | > 20% | 5.2 nM | – | Ki [6]: 30 nM |
| O=[N+]([O-])c1cccc(C(OCCCc2c[nH]cn2)c2ccccc2)c1 (configuration not stated) | – | – | > 20% | 2.7 nM | 9.6 nM | – |
| COc1ccc(/C(=N/[C@H](C)Cc2cnc[nH]2)c2ccccc2)c(O)c1 | – | – | – | – | – | Activity [10]: > 20%; EC50 [11]: 6750 nM |
| CCOC(=O)CN1Cc2ccccc2C[C@@H](NC(=O)C(Cc2ccccc2)C(=O)NO)C1=O (some centres not stated) | > 20% | 3020 nM | – | – | – | – |
| CC(C)(CN=C(c1ccccc1O)c1ccccc1O)c1c[nH]cn1 | – | – | > 20% | 19 nM | – | – |
| O=C(O)C(Cc1cccc2ccccc12)NC(=O)[C@@H](CS)Cc1ccccc1 (some centres not stated) | – | – | > 20% | 62 nM | – | – |
| O=C(Nc1cccc2ccccc12)N1CCC(c2c[nH]cn2)CC1 | > 20% | 1090 nM | – | – | – | – |

— ChEMBL document CHEMBL4041490, “Discovery of nanomolar ligands with novel scaffolds for the histamine H4 receptor by virtual screening” (Eur J Med Chem, 2017)
